Laboratory results published in patent publication US12622965B2, “Therapeutical tools and methods using temperature-sensitive receptors for treating blindness” (FRIEDRICH MIESCHER INSTITUTE FOR BIOMEDICAL RESEARCH, priority 2020, dated 2026).

How the values were obtained:
[1] = test system: adult human ex vivo retinal explants; experiment: AAV transduction of adult human ex vivo retinal explants, quantified by immunofluorescence; assay type: cell-based; conditions: CAG promoter, mean±s.d
Description: Finally, the inventors provided NIR sensitivity to in a blind human retina. They targeted rTRPV1 to adult human ex vivo retinal explants, kept alive in culture for eight weeks post mortem. Cultured retinas lose light sensitivity after 16 hours. Using a CAG promoter, a density of 2477±889 rTRPV1 positive photoreceptors was achieved per mm^2 of explant tissue (mean±s.d). 94.5±4.2% of rTRPV1 positive cells were photoreceptors (n=2583 rTRPV1 positive cells mm^−2, n=2477 rTRPV1 positive photoreceptors mm^−2, mean±s.d).
Human retinal tissue was obtained after corneal tissue harvest from adult multi-organ donors with no reported history of eye disease, n=2 eyes from n=2 donors. […] Light responses were recorded from samples 8 weeks post-mortem. […]
A Zeiss LSM 700 laser scanning confocal microscope was used to acquire images of antibody stained cells and tissues with an EC Plan-Neofluar 40×/1.30 oil M27 objective at up to 4 excitation laser lines according to secondary antibody specification. Expression was assessed from 1024×1024 pixel images in a z-stack with 0.75 μm steps. […] AAV transduction was quantified from retinal wholemounts. […] Quantification was performed separately for outer nuclear layer, inner nuclear layer and ganglion cell layer.

[2] = test system: human retina (ONL, INL, GCL cells); experiment: two-photon acousto-optic calcium imaging of NIR responses in ex vivo human retina; assay type: cell-based
From the text: High-speed three-dimensional acousto-optic calcium imaging of neuronal network activity permits observation of response propagation from photoreceptors through the retina. To detect NIR light driven responses in the human retina, the inventors deposited nanorods (Abs 915 nm) over the photoreceptor side of the retina and performed two-photon calcium imaging of individual cells in the outer nuclear layer (ONL), which hosts photoreceptors, the inner nuclear layer (INL), which hosts horizontal, bipolar and amacrine cells, and the ganglion cell layer (GCL) which hosts ganglion and amacrine cells. To record calcium signals, the fluorescent calcium dye Oregon Green 488 BAPTA-1 (OGB-1) was electroporated into the cells. […] In cells of the INL and GCL layers, bidirectional changes in the calcium signal indicate activation of excitatory and inhibitory retinal pathways. More cells responded in the GCL than in the ONL, reflecting convergent retinal circuit organization (Chi Squared Test, P=0.0006; GCL, n=41 responding neurons, n=83 total neurons, 49.4%; ONL, n=16 responding photoreceptors, n=74 total photoreceptors, 21.6%). There was no significant difference in number of NIR light responding cells between INL and GCL (Chi Squared Test, P=0.89; INL, n=46 responding neurons, n=93 total neurons, 49.5%).
Human retinal tissue was obtained after corneal tissue harvest from adult multi-organ donors with no reported history of eye disease, n=2 eyes from n=2 donors. After cornea isolation, the iris, lens, and vitreous were removed and the retina was submerged in flowing Ames' medium (Sigma, A1420) saturated with 95% O2 and 5% CO2. […] Samples used for tissue culture were of mid-peripheral origin, midway between the fovea and the anterior retinal border. For organotypic retinal culture, 4×4 mm retinal pieces were isolated and placed photoreceptor-side-up on polycarbonate membranes inserts (Corning, 3412). The cultures were maintained at 37° C. and 5% CO2 in DMEM/F12 medium (Thermo Fisher Scientific), supplemented with 0.1% bovine serum albumin (BSA), 10 μM O-acetyl-L-carnitine hydrochloride, 1 mM fumaric acid, 0.5 mM galactose, 1 mM glucose, 0.5 mM glycine, 10 mM HEPES, 0.05 mM mannose, 13 mM sodium bicarbonate, 3 mM taurine, 0.1 mM putrescine dihydrochloride, 0.35 μM retinol, 0.3 μM retinyl acetate, 0.2 μM (+)-α-tocopherol, 0.5 mM ascorbic acid, 0.05 μM sodium selenite, 0.02 μM hydrocortisone, 0.02 μM progesterone, 1 μM insulin, 0.003 μM 3,3′,5-triiodo-L-thyronine, 2 000 U penicillin and 2 mg streptomycin (Sigma). For AAV infection, 40 μL of virus was applied per retinal explant 4-5 days after plating. The culture medium was renewed every 48 hours. Light responses were recorded from samples 8 weeks post-mortem. […]

[3] = nanorods (Abs 915 nm) on photoreceptor side, 8 weeks post-mortem

“TRPV1.465-6x-His: rat TRPV1 channel with 6x-His epitope tag inserted in the first extracellular loop after amino acid 465; delivered by AAV” was tested, and the “density of rTRPV1 positive photoreceptors” value ([1]; explant tissue) was 2477±889 per mm^2, the “rTRPV1 positive cells that were photoreceptors” value [1] was 94.5±4.2% and the “NIR light responding cells in the GCL” value [2, 3] was 49.4%. The “NIR light responding cells in the INL” value [2, 3] was 49.5%, the “NIR light responding photoreceptors in the ONL” value [2, 3] was 21.6% and the “NIR light-evoked activation in retinal explants” value ([2]; rTRPV1 transduced explants (n=3), nanorods (Abs 915 nm)) was “NIR light-evoked activation could be detected”.
